We go through nine compounds from publication PMC10813753 (Biology, 2024).

Where a name gives a salt, the structure may show the parent alone. Read-outs that look alike come from different tables or passages of the source. A value given as a limit tells only on which side of the number the result lay.

Data set [1] relates to Tel22 (DNA, G4) AGGGTTAGGGTTAGGGTTAGGG
The experiment in a line: circular dichroism titration. Particulars: 10 mM K+, 90 mM Li+; 10 mM Li-cacodylate pH 7.3, 25 °C; 4 μM DNA, DNA/ligand 1:1 to 1:5. Background: Circular dichroism is widely used to follow secondary structure.

Data set [2] concerns F21T (DNA, G4) GGGTTAGGGTTAGGGTTAGGG
The experiment in a line: FRET melting (renaturing curve). Particulars: 10 mM K+, 90 mM Li+; 10 mM Li-cacodylate pH 7.3; 0.2 μM DNA; 10 μM compound.

The subject of data set [3] is F10T (DNA, hairpin, Sp18 (hexaethylene glycol type spacer) between 10 and 11) TATAGCTATATAGCTATA
The experiment in a line: FRET melting (renaturing curve). Particulars: 100 mM LiCl; 10 mM Li-cacodylate; 0.2 μM DNA; 10 μM compound.

Data set [4] has as its system Tel22 (DNA, G4) AGGGTTAGGGTTAGGGTTAGGG
Kind of data set: equilibrium dialysis (non-competition). The note with it: 100 mM KCl; 10 mM potassium phosphate pH 7.2, 22 °C; 2 μM ligand, 75 μM tetrads; apparent; per tetrad; per base. On the technique in general: Equilibrium dialysis compares concentrations on both sides of a semipermeable membrane.

Data set [5] concerns ds17 (DNA, duplex) GGGTTACTACGAACTGG/CCAGTTCGTAGTAACCC
The experiment in a line: equilibrium dialysis (non-competition). The note with it: 100 mM KCl, 10 mM potassium phosphate pH 7.2, 22 °C, 2 μM ligand, 75 μM base pairs, apparent, per base pair.

For data set [6], the system named is PC-3 cells (prostate tumor). The experiment in a line: MTT viability assay PC-3. Format: cell-based, human. Particulars: MTT, 72 h. The protocol:
(§1) A panel of five tumor cell lines and two normal cell lines was used to preliminarily test the cytotoxicity of compounds 1–4, and the experiments were conducted as previously reported. All human cell lines were acquired from American Type Culture Collection (ATCC): tumor PC-3 and DU145 (prostate), HeLa (cervix), MCF7 (breast) and HT29 (colorectal) and healthy HFF-1 (fibroblast) and RWPE-1 (prostate). The cell catalogue reference and culture media used in the experiments were CRL-1435^TM, RPMI (PC-3), HTB-81™, RPMI (DU145), CCL-2^TM, DMEM (HeLa), HTB-22^TM, DMEM (MCF-7), HTB-38^TM, modified McCoy’s 5a medium, Catalogue No. 30-2007 (HT29), SCRC-1041^TM, DMEM (HFF-1) and CRL-11609^TM, Keratinocyte-SFM (RWPE-1). Culture media were purchased from Merck: RPMI-1640, DMEM + 10% FBS (Fetal Bovine Serum) + […] (penicillin/streptomycin/amphotericin B). Media and supplements for RWPE-1 were from ThermoFisher (17005075, Madrid, Spain). MCF7 cells were additionally supplemented with insulin (0.001 mg/mL in 500 mL media). Cells were kept at 37 °C (5% CO2), and culture media were renewed three times per week. When the cells reached 80–100% confluence, they were trypsinized and centrifuged, and the concentration was adjusted to each experiment. Cells were seeded at a density of ~10,000 cells/well into 24-well plates. The cells were treated with ligands 1–4 or the cytotoxic agents PhenQE8, PhenDC3 or cisplatin at different concentrations (10 nM–100 μM). Compound solutions were freshly prepared using the appropriate culture medium. Triplicate experiments were run. For MTT viability assays, after 72 h incubation, 50 μL of MTT (5 mg/mL) was added, and an additional incubation of 4 h was allowed. The medium in each well was then replaced by DMSO, and the absorbance was measured at 570 nm using an ELISA plate reader. Absorbances were normalized using negative controls (untreated cells, in triplicate, with a maximum of 0.9% DMSO content). Dose–response curves were obtained by plotting the percentage of viable cells versus logarithmic compound concentration. IC50 values were determined using Kaleidagragh^TM (3.52) software by adjusting the data to Equation 1/(1 + 10^(m2*(log(m1) − x))); m1 = 0.000003; m2 = 1.
For orientation: Formazan colour is commonly taken as a measure of viable cells.

For data set [7], the system named is DU145 cells (prostate tumor). Kind of data set: MTT viability assay DU145. It counts as cell-based, human. The procedure:
as §1

A further data set deals with HeLa cells (cervix). The experiment in a line: MTT viability assay HeLa. Format: cell-based, human. The note with it: 72 h. The protocol: as §1
Another data set deals with MCF-7 cells (breast). Kind of data set: MTT viability assay MCF-7. Format: cell-based, human. The procedure:
as §1

In data set [8] the test system is HFF-1 cells (healthy fibroblasts). Kind of data set: MTT viability assay HFF-1. It counts as cell-based, human. The procedure: as §1
The test system of data set [9] is RWPE-1 cells (healthy prostate). Kind of data set: MTT viability assay RWPE-1. Format: cell-based, human. The procedure: as §1
The test system of data set [10] is G4 Tel22 telomeric quadruplex DNA. More on the design: method as in PMID 33451070. The note with it: previously reported ref 29; cited from earlier work.
For a further data set, the system named is Calf thymus CT DNA. Particulars: cited from earlier work.
The test system of the next data set is HT29 cells (colorectal). Kind of data set: MTT viability assay HT29. It counts as cell-based, human. The procedure:
as §1, with “Dose–response curves were obtained by plotting the percentage of viable cells versus logarithmic compound concentration.” left out

Data set [11] deals with telomeric G4 sequence F21T. The experiment in a line: FRET-based DNA melting assay, telomeric G4 F21T. Particulars: 10 μM compound, 0.2 μM F21T, renaturing process, K+ buffer. Format: binding, human. The protocol: FRET DNA melting assays were conducted following standard reported procedures. Briefly, the employed oligonucleotides F21T (5′-FAM—(GGG TTA)3GGG—TAMRA-3′) and F10T (5′-FAM—TAT AGC TA TA/Sp18/TA GCT ATA—TAMRA-3′) were dissolved in buffer at 0.25 μM concentration and annealed by heating at 90 °C for 5 min, and then immediately cooling to 0 °C, in the case of F21T, or slowly to rt (F10T) during a period of 3 hours. The solutions were allowed to stand at 4 °C at least overnight.
Tested compounds 1–4 were dissolved in water with up to a maximum 10% DMSO (50 μM stock solution). Each stock solution was then gradually diluted to reach the final concentrations in the assay from 0 to 10 μM and a fixed 0.2 μM concentration of target sequences F21T or F10T. The buffer used for G4 sequence F21T was 10 mM KCl, 90 mM LiCl and 10 mM Li-cacodylate, pH 7.3. The buffer employed for F10T was 100 mM LiCl and 10 mM Li-cacodylate.
The melting process program consisted of an incubation step at 24 °C for 5 min and then a temperature ramp (1 °C/min rate) with fluorescence recordings at every degree up to 95 °C. Subsequently, the microplate with the samples (50 μL) was incubated for 5 min at 96 °C and then gradually cooled by using a temperature ramp of −1 °C/min, with fluorescence measurements at every degree down to 25 °C. The melting and refolding (or renaturing) curves were registered based on the change in emission of the FAM (6-carboxyfluorescein) fluorophore, excited at 492 nm and emitting at 516 nm. Melting temperature values (Tm) were determined from replicate experiments using normalized curves and considering mid-transition T1/2 temperatures.

Data set [12] deals with PC-3, DU145, HeLa, MCF-7, HT29, HFF-1 and RWPE-1 cells. The experiment in a line: MTT viability assay, whole cell panel. Format: cell-based, human. Particulars: 72 h, up to 100 μM. The procedure: A panel of five tumor cell lines and two normal cell lines was used to preliminarily test the cytotoxicity of compounds 1–4, and the experiments were conducted as previously reported. All human cell lines were acquired from American Type Culture Collection (ATCC): tumor PC-3 and DU145 (prostate), HeLa (cervix), MCF7 (breast) and HT29 (colorectal) and healthy HFF-1 (fibroblast) and RWPE-1 (prostate). The cell catalogue reference and culture media used in the experiments were CRL-1435^TM, RPMI (PC-3), HTB-81™, RPMI (DU145), CCL-2^TM, DMEM (HeLa), HTB-22^TM, DMEM (MCF-7), HTB-38^TM, modified McCoy’s 5a medium, Catalogue No. 30-2007 (HT29), SCRC-1041^TM, DMEM (HFF-1) and CRL-11609^TM, Keratinocyte-SFM (RWPE-1). Culture media were purchased from Merck: RPMI-1640, DMEM + 10% FBS (Fetal Bovine Serum) + […] (penicillin/streptomycin/amphotericin B). Media and supplements for RWPE-1 were from ThermoFisher (17005075, Madrid, Spain). […] The medium in each well was then replaced by DMSO, and the absorbance was measured at 570 nm using an ELISA plate reader. Absorbances were normalized using negative controls (untreated cells, in triplicate, with a maximum of 0.9% DMSO content). […] IC50 values were determined using Kaleidagragh^TM (3.52) software by adjusting the data to Equation 1/(1 + 10^(m2*(log(m1) − x))); m1 = 0.000003; m2 = 1.

As usually defined, the melting point is the temperature of the solid-liquid transition. What is called IC50 is the midpoint of a concentration-inhibition curve. Lower therefore signals greater potency.

Turning to `NC(=S)N/N=C/c1ccc2ccc3ccc(/C=N/NC(N)=S)nc3c2n1` [1], the binding entry in data set [1] is reported as “yes”. Besides, the ΔTm in data set [2] was ~ 12 °C; in [3], ~ 0 °C. The Kapp in data set [4] was 1.1 ± 0.1 × 10^5 M^-1; in data set [5], 0.06 ± 0.01 × 10^5 M^-1.
As for `NC(=S)N/N=C/c1ccc2ccc3ccc(/C=N/NC(N)=S)nc3c2n1` (as salt: phosphate) [compound 2, 2,2′-(1,10-Phenanthroline-2,9-diyl)-bis(methylene)-bis(hydrazine-1-carbothioamide) Hexafluorophosphate Salt], the melting point is > 240 °C (dec.).
Take `C[n+]1cc(NC(=O)c2ccc3ccc4ccc(C(=O)Nc5cc6ccccc6[n+](C)c5)nc4c3n2)cc2ccccc21` [PhenDC3]: the IC50 in data set [6] (Homo sapiens, PC-3, 72 h) is 55.5 ± 3.1 µM; in data set [7] (Homo sapiens, DU-145, 72 h), 7.3 ± 1 µM; in the data set with HeLa cells (cervix) (Homo sapiens, HeLa), more than 100 µM; in the data set on MCF-7 cells (breast) (Homo sapiens, MCF7, 72 h), 2.4 ± 0.8 µM; in [8] (Homo sapiens, HFF-1, 72 h) it was 32.2 ± 4.2 µM; in [9] (Homo sapiens, RWPE-1, 72 h), 8.2 ± 1.1 µM.
On to `N=C(N)N/N=C/c1ccc2ccc3ccc(/C=N/NC(=N)N)nc3c2n1` [PhenQE8], for which the IC50 in data set [6] (Homo sapiens, PC-3, 72 h) was 5.6 ± 0.3 µM; in [7] (Homo sapiens, DU-145, 72 h) it was 22.7 ± 1.1 µM; with HeLa cells (cervix) (Homo sapiens, HeLa), 16.2 ± 1.6 µM; with MCF-7 cells (breast) (Homo sapiens, MCF7, 72 h), 44.9 ± 9.2 µM; in data set [8] (Homo sapiens, HFF-1, 72 h), 170 ± 23.3 µM; in data set [9] (Homo sapiens, RWPE-1, 72 h), 38.8 ± 0.5 µM. In data set [10], the “binding selectivity quadruplex/dsDNA” value was 90 fold. Further, the “viscosity slope, (η/ηo)^1/3 versus r” value in the data set with Calf thymus CT DNA (determined in previous studies ref 29) is “ca. 0.24”.
Consider `N.N.[Cl][Pt][Cl]` [cisplatin], for which the IC50 in data set [6] worked out at 12.8 ± 0.9 µM; in [7] (72 h), 8.4 ± 1.5 µM; with HeLa cells (cervix), 18 ± 1.9 µM; in the data set on MCF-7 cells (breast) (72 h) it was 96.5 ± 6.7 µM; in the data set on HT29 cells (colorectal) (72 h) it was 86.6 ± 7 µM; in data set [8] (72 h), 36.6 ± 4.4 µM. In addition, the midpoint of inhibition in data set [9] (72 h), the IC50, lay at 16.4 ± 1.4 µM.
Regarding `C(=N\Nc1nc(-c2ccccc2)cs1)/c1ccc2ccc3ccc(/C=N/Nc4nc(-c5ccccc5)cs4)nc3c2n1` [compound 4, 2,9-bis((E)-(2-(4-Phenylthiazol-2-yl)hydrazineylidene)methyl)-1,10-phenanthroline], the melting point was > 250 °C (dec.). The “ΔTm of telomeric G4 F21T” value in data set [11] was ~ 3 °C. In data set [6] (Homo sapiens, PC-3, 72 h), this compound returned an IC50 of more than 100 µM. In data set [7] (Homo sapiens, DU-145, 72 h), this compound came in with an IC50 of more than 100 µM. Besides, the 50% inhibitory concentration (IC50) in the data set on HeLa cells (cervix) (Homo sapiens, HeLa) was more than 100 µM. The IC50 in the data set on MCF-7 cells (breast) (Homo sapiens, MCF7, 72 h) is more than 100 µM. In addition, the IC50 in the data set on HT29 cells (colorectal) (Homo sapiens, HT-29, 72 h) was more than 100 µM. Besides, in data set [8] (Homo sapiens, HFF-1, 72 h), the IC50 was more than 100 µM. In data set [9] (Homo sapiens, RWPE-1, 72 h), this compound registered an IC50 of more than 100 µM. In data set [12], the “cytotoxicity in all cell lines tested” value is given as “non-cytotoxic”. Also, in [2], the ΔTm was ~ 3 °C. Further, in [3], the ΔTm was ~ 0 °C.
With `NC(=S)N/N=C/c1ccc2ccc3ccc(/C=N/NC(N)=S)nc3c2n1` [3], the ΔTm in data set [2] was ~ 10 °C.
Turning to `CC[n+]1c(-c2ccccc2)c2cc(N)ccc2c2ccc(N)cc21` [ethidium bromide], the “viscosity slope, (η/ηo)^1/3 versus r” value in the data set with Calf thymus CT DNA (classical monointercalating agent ref 50, 51) is recorded as ~ 1.0.
Regarding `NC(=S)N/N=C/c1ccc2ccc3ccc(/C=N/NC(N)=S)nc3c2n1` [2], the ΔTm in data set [2] was ~ 15 °C.
